What all share (type): physicochemical
Data set [1] in a line: Dissolution of fine particles less than 5 μm in simulated lung fluid. The settings on record: 37 °C, 75 rpm; for dissolved: within 15 min.
Method: To collect the fine particles less than 5 μm on a glass fiber filter, abbreviated ACI was used [17, 18]. The micronized FP/SX/TB blend was dispersed at a flow rate of 60 L/min, and 4.0 L of air was withdrawn. The glass fiber filter with collected fine particles was assembled into a filter holder (Copley Scientific, Nottingham, UK). […] The filter holder was placed in a dissolution vessel, and 500 mL of simulated lung fluid was used as dissolution media [19]. The dissolution media was maintained at a temperature of 37 ± 0.5 °C with an agitation speed of 75 rpm. At a predetermined time, 2 mL of the media was collected and diluted with 0.1 M HCl, edetate disodium dihydrate, and methanol to achieve a ratio of 900:50:0.075:50. The diluted solution was filtered through a 0.45 μm PVDC membrane filter and analyzed by HPLC as described in Section 2.5.
Data set [2] is described as follows: Effect of capsule components on drug stability (degraded compounds by HPLC). The settings on record: in various capsules, 60 °C for 2 weeks; % of the initial amount. On the procedure: The effect of capsule components on the stability of FP, SX, or TB was investigated. The main materials and gelling agent of the capsule are described in Table 2. Each capsule was packed in an aluminum–aluminum blister and stored at 60 °C for 2 weeks. For comparison, commercial products are stored under the same conditions. Degraded compounds of FP, SX, or TB were analyzed as described in Section 2.5.
Degradation compounds of FP, SX, or TB were quantified using a high-performance liquid chromatography (HPLC) system (Hitachi, Tokyo, Japan) comprising a 5110 pump, 5430 detectors, a 5310 column oven, and 5210 autosamplers. While FP and SX were analyzed together, TB was assessed using a separate set of analytical conditions. Inertsil® ODS-2 column (4.6 mm × 250 mm, 5 μm) was used to analyze the degradation compounds of FP and SX. The powder, equivalent to 2.5 mg of FP and 0.725 mg of SX, was introduced into 5 mL of a mixture consisting of phosphoric acid, methanol, and distilled water in a ratio of 0.05:89.95:10. The mixture solution was vortexed for 30 min and passed through a 0.45 μm membrane filter. Fifty microliter aliquots of the filtered solution were injected and detected at 228 nm. […] Fifteen microliter aliquots of the sample solution were injected into the column at 50 °C and monitored at […] with a flow rate of 1.2 mL/min.

The nature of data set [3]: Particle size by laser diffraction (HELOS) after air jet milling. On the procedure: The drug was supplied into a jet mill at a rate of 10 g/min with injection air and grinding air pressures set at among 1–4 bars. The particle size of the micronized TB was measured using high-resolution laser diffraction spectroscopy (HELOS; Sympatec, Clausthal-Zellerfeld, Germany).
[4] abbreviates: powder without the air jet milling process (as from the manufacturer).

SMILES strings stand for the structures.

For the compound `CCC(=O)O[C@]1(C(=O)SCF)[C@H](C)C[C@H]2[C@@H]3C[C@H](F)C4=CC(=O)C=C[C@]4(C)[C@@]3(F)[C@@H](O)C[C@@]21C` [FP, fluticasone propionate], the maximum dissolution entry in data set [1] is “approximately 20%”. The “total degraded compound of FP” value in data set [2] was “less than 0.7%”. The particle size entry in data set [3] (setting [4]) is recorded as “less than 5 μm”.
Turning to `OCc1cc(C(O)CNCCCCCCOCCCCc2ccccc2)ccc1O` (stereo not shown) [SX, salmeterol xinafoate], the dissolved result in data set [1] is on record as “more than 85%”. Moreover, the particle size entry in data set [3] (setting [4]) is on record as “less than 5 μm”.
For `C[N+]1(C)[C@@H]2C[C@@H](OC(=O)C(O)(c3cccs3)c3cccs3)C[C@H]1[C@@H]1O[C@@H]12` [TB, tiotropium bromide], in data set [1], the dissolved result was “more than 85%”. Also, the particle size was determined as 3.1 ± 0.3 μm in data set [3] (air jet mill condition I: injection air pressure 2 bar, grinding air pressure 1 bar); 2.5 ± 0.1 μm in data set [3] (air jet mill condition II: injection air pressure 3 bar, grinding air pressure 2 bar); 1.4 ± 0.3 μm in data set [3] (air jet mill condition III: injection air pressure 4 bar, grinding air pressure 3 bar); 6.1 ± 0.8 μm in data set [3] (setting [4]).

The values above are taken from article PMC11769347, “Development of Novel Fluticasone/Salmeterol/Tiotropium-Loaded Dry Powder Inhaler and Bioequivalence Assessment to Commercial Products in Rats” (Pharmaceutics, 2025).
